Measured values taken from ChEMBL document CHEMBL1949549, “Concise synthesis of (+)-conduritol F and inositol analogues from naturally available (+)-proto-quercitol and their glucosidase inhibitory activity” (Bioorg Med Chem Lett, 2012).

Columns and labels:
[1] = Inhibition of Baker's yeast Alpha-glucosidase-1 using p-nitrophenyl-alpha-D-glucopyranoside as substrate preincubated for 10 mins prior substrate addition measured after 20 mins by spectrophotometry; set-up: species or system Saccharomyces cerevisiae
[2] = biological target: Lysosomal alpha-glucosidase (Rattus norvegicus) (UniProt Q6P7A9); assay: Inhibition of rat intestinal alpha-glucosidase maltase using maltose as substrate at 10 mg/mL preincubated for 10 mins prior substrate addition measured after 40 mins by spectrophotometry
[3] = biological target: Sucrase-isomaltase, intestinal (Rattus norvegicus) (UniProt P23739); assay: Inhibition of rat intestinal alpha-glucosidase sucrase using sucrose as substrate at 10 mg/mL preincubated for 10 mins prior substrate addition measured after 40 mins by spectrophotometry
Beta-galactosidase = biological target: T1, Beta-galactosidase (Homo sapiens, UniProt P16278); assay: Inhibition of beta-galactosidase
T1 sequence (P16278 whole entry): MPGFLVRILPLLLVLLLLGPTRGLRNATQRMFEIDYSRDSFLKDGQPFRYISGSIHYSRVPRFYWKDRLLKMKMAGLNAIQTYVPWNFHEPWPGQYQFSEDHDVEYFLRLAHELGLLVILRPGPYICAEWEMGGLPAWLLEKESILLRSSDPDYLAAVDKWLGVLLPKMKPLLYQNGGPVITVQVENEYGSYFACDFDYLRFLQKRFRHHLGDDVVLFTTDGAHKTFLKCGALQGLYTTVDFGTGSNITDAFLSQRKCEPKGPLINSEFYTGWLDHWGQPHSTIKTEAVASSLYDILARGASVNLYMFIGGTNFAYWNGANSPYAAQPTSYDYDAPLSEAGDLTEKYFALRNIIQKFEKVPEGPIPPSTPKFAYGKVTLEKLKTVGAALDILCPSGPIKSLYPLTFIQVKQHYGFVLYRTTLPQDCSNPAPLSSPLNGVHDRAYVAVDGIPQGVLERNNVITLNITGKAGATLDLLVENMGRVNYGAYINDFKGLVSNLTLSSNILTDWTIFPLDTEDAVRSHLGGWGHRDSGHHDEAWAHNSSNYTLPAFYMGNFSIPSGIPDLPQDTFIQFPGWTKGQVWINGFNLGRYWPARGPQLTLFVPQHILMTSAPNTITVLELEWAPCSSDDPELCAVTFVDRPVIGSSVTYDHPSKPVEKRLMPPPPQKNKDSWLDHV

Saccharomyces cerevisiae [4] = assay: Ratio of acarbose IC50 to compound IC50 for Baker's yeast Alpha-glucosidase-1
Saccharomyces cerevisiae [5] = assay: Inhibition of Baker's yeast Alpha-glucosidase-1 using p-nitrophenyl-alpha-D-glucopyranoside as substrate at 10 mg/mL preincubated for 10 mins prior substrate addition measured after 20 mins by spectrophotometry

Sequence of Lysosomal alpha-glucosidase (Rattus norvegicus) (Q6P7A9 whole entry): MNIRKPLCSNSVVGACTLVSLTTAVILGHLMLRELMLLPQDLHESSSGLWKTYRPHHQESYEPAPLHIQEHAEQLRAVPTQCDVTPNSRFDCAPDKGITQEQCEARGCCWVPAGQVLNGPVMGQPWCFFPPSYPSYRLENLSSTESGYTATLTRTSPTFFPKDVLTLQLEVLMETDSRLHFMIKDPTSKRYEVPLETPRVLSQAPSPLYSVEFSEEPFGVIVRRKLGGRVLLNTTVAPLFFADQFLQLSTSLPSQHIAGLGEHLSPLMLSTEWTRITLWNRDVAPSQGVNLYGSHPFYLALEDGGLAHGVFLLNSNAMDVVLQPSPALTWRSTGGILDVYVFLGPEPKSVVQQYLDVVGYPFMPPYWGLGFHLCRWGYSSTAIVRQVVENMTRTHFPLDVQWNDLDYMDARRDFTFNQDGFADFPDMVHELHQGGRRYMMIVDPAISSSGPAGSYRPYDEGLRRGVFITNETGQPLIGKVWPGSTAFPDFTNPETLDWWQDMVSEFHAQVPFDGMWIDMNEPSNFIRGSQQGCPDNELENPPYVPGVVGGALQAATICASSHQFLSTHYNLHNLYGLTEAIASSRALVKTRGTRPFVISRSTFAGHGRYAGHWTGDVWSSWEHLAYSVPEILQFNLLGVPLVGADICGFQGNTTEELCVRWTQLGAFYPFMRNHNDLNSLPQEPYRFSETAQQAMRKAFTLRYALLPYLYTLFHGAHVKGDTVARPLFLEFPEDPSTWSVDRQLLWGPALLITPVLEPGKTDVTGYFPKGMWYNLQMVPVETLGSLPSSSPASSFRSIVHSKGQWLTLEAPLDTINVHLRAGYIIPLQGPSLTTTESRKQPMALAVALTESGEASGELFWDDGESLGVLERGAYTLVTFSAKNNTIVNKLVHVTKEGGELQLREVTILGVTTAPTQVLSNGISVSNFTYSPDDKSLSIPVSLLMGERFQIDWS
Sequence of Sucrase-isomaltase, intestinal (Rattus norvegicus) (P23739 1-1013 limits assumed): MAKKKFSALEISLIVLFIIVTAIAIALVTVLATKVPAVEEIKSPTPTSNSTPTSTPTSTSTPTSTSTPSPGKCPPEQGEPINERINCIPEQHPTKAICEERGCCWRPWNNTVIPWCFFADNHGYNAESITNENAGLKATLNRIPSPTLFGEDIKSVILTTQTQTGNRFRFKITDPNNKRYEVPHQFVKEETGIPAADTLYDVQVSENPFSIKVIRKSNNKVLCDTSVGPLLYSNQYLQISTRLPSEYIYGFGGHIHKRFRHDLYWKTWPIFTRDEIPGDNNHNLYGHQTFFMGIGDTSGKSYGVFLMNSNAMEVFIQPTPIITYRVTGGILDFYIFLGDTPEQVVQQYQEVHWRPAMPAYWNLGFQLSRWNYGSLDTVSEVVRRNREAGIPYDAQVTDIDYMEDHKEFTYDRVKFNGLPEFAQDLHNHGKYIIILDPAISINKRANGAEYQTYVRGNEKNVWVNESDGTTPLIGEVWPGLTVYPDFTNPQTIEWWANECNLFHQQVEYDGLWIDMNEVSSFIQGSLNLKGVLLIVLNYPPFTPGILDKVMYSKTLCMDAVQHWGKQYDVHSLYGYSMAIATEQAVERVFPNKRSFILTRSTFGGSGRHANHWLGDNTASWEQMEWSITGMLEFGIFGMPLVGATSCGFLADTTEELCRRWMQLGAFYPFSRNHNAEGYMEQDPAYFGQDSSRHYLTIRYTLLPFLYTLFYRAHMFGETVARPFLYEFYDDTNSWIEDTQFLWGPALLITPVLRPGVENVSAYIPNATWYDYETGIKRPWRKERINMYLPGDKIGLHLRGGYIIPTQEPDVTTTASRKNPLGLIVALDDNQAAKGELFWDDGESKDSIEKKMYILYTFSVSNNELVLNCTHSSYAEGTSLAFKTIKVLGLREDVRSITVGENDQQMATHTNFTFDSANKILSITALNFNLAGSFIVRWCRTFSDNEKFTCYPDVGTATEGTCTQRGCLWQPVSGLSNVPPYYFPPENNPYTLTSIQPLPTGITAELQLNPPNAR
Sequence of Sucrase-isomaltase, intestinal (Rattus norvegicus) (P23739 1014-1841 limits assumed): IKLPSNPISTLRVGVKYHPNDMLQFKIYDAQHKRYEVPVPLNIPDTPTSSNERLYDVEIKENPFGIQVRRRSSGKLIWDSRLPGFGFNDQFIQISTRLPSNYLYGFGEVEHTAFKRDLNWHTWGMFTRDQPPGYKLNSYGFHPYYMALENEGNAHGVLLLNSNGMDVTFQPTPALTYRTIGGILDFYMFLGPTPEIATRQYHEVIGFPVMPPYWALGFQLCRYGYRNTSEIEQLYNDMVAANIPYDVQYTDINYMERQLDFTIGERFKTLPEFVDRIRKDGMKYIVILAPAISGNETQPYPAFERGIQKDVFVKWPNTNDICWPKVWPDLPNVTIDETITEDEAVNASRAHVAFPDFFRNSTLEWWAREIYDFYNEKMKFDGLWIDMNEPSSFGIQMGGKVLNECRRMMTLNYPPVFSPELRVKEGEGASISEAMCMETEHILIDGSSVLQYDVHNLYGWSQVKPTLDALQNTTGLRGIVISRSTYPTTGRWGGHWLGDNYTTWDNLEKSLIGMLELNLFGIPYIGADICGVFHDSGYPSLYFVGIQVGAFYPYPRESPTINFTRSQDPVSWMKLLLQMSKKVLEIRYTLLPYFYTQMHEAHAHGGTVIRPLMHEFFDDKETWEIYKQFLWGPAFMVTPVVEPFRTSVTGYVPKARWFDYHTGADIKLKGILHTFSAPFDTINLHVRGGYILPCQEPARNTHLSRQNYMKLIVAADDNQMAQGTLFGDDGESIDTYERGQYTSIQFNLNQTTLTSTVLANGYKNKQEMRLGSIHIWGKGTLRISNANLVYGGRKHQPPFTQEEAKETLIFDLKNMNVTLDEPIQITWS

| IC50 [1] [µM] | inhibition [2] [%] | inhibition [3] [%] | IC50 (Beta-galactosidase) [µM] | Ratio IC50 (Saccharomyces cerevisiae [4]) | inhibition (Saccharomyces cerevisiae [5]) [%] | SMILES |
| --- | --- | --- | --- | --- | --- | --- |
| 1260 | < 30 | < 30 | – | – | – | O[C@H]1[C@H](O)[C@H](O)[C@@H](O)[C@H](O)[C@H]1O |
| 86.1 | – | – | – | – | – | O[C@@H]1[C@@H](O)[C@@H](O)C=C[C@H]1O [listing 1 of 2 here] |
| – | – | – | 600 | – | – | O[C@@H]1[C@@H](O)[C@@H](O)C=C[C@H]1O (relative stereo) |
| – | < 30 | < 30 | – | 5 | – | O[C@@H]1[C@@H](O)[C@@H](O)C=C[C@H]1O [listing 2 of 2 here] |
| 476 | < 30 | < 30 | – | – | – | O[C@H]1[C@@H](O)[C@@H](O)[C@@H](O)[C@@H](O)[C@@H]1O |
| 404 | – | – | – | – | – | C[C@H]1O[C@H](O[C@H]2[C@H](O)[C@@H](O)[C@@H](O[C@H]3[C@H](O)[C@@H](O)C(O)O[C@@H]3CO)O[C@@H]2CO)[C@H](O)[C@@H](O)[C@@H]1N[C@H]1C=C(CO)[C@@H](O)[C@H](O)[C@H]1O (stereo not given in full) [ACARBOSE] |
| – | < 30 | < 30 | – | – | < 30 | OC1[C@@H](O)[C@H](O)C[C@@H](O)[C@@H]1O (stereo not given in full) |
